From patent US11866430B2, “Naphthyridinone compounds useful as T cell activators” (priority 2018, dated 2024) come the findings set out here.

The subject of assay [1] is pre-activated CD4 T cells and Raji cells. In words: Raji CD4 T Cell IL2 Assay. The format is cell-based. To be noted: Homo sapiens, Raji.
Assay [2] has as its target human DGKα (Homo sapiens (Human), UniProt P23743). Briefly: biochemical. To be noted: detergent/lipid micelle substrate; read-out: DGKα IC50. Summed up: (§1)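 Full-length human DGKζ (and DGKα), C-terminal His-tagged, Sf9-expressed, with phosphatidylserine/DAG micelles in 50 mM octyl glucoside; buffer 50 mM MOPS pH 7.5, 100 mM NaCl, 10 mM MgCl2, 1 μM CaCl2, 1 mM DTT.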
Assay [3] has as its target human DGKζ (Homo sapiens (Human), UniProt Q13574). Briefly: DGKζ assay (detergent/lipid micelle substrate). It counts as biochemical. To be noted: detergent/lipid micelle substrate; read-out: DGKζ IC50. In a few lines:
as §1

Sequence of human DGKα (P23743 other isoform, or with tags, fused parts or gaps): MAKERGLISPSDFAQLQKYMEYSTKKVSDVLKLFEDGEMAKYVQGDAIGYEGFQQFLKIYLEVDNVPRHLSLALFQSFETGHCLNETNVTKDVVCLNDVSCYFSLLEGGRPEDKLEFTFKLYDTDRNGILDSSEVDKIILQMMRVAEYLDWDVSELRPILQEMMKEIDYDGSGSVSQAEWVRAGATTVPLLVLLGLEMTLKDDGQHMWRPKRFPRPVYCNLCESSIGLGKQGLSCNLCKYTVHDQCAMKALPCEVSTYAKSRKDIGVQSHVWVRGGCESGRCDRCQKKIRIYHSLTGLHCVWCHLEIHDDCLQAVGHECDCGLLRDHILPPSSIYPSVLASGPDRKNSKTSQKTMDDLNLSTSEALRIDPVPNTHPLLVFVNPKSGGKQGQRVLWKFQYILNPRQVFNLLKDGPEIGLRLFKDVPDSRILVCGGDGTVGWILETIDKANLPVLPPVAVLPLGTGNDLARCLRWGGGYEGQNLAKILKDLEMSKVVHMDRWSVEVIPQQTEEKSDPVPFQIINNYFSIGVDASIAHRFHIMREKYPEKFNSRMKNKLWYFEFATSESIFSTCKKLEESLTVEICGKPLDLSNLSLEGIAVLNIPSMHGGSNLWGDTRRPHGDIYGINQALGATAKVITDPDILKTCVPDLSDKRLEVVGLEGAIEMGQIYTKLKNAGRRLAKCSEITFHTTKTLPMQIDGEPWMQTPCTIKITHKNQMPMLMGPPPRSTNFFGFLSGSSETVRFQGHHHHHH
Sequence of human DGKζ (Q13574 other isoform, or with tags, fused parts or gaps): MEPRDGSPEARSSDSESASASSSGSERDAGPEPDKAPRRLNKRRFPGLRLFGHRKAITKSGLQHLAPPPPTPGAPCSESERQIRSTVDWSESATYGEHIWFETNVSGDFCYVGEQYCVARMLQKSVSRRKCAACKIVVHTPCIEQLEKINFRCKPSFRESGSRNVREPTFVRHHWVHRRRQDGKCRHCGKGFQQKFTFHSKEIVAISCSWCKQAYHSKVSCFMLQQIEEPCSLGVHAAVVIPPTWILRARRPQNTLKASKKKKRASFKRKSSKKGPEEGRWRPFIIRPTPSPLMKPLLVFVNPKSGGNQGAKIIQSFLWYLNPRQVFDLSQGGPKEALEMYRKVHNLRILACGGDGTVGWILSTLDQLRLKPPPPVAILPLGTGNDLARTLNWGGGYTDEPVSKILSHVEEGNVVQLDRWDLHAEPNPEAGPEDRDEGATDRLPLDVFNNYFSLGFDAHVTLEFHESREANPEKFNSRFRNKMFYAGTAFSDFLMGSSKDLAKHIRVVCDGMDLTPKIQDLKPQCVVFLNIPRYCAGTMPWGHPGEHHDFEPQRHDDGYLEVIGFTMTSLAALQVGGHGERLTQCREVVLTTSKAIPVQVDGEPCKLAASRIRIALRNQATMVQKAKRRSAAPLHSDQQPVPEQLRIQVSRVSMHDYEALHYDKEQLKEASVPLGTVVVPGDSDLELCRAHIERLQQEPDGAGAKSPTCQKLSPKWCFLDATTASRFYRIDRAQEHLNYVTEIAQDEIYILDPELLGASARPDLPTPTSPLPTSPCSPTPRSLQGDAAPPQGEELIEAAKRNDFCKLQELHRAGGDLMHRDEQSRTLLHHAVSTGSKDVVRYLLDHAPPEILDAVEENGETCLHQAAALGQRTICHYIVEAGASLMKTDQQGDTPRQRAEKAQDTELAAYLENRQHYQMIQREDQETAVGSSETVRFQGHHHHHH

In general, IC50 refers to the midpoint of a concentration-inhibition curve. With `COc1cccc(CN2CCN(c3c(C#N)c(=O)n(C)c4ccc(Cl)nc34)CC2)c1` [Example 327, 6-chloro-4-{4-[(3-methoxyphenyl)methyl]piperazin-1-yl}-1-methyl-2-oxo-1,2-dihydro-1,5-naphthyridine-3-carbonitrile], the IC50 in assay [1] was 0.43 µM; in assay [2], 0.66 µM; in assay [3], 140 µM.
Turning to `Cc1ccc(CN2CCN(c3c(C#N)c(=O)n(C)c4ccc(Cl)nc34)CC2)cc1O` [Example 328, 6-chloro-4-{4-[(3-hydroxy-4-methylphenyl)methyl]piperazin-1-yl}-1-methyl-2-oxo-1,2-dihydro-1,5-naphthyridine-3-carbonitrile], the IC50 in assay [1] is 0.44 µM; in assay [2], 1 µM; in assay [3], 120 µM.
Taken in the same sequence, the figures for `Cn1c(=O)c(C#N)c(N2CCN(Cc3cccc(F)c3F)CC2)c2nc(Cl)ccc21` [Example 330, 6-chloro-4-{4-[(2,3-difluorophenyl)methyl]piperazin-1-yl}-1-methyl-2-oxo-1,2-dihydro-1,5-naphthyridine-3-carbonitrile] were 0.5 µM, 3.7 µM and over 240 µM.
Turning to `COc1ccccc1CN1CCN(c2c(C#N)c(=O)n(C)c3ccc(Cl)nc23)CC1` [Example 331, 6-chloro-4-{4-[(2-methoxyphenyl)methyl]piperazin-1-yl}-1-methyl-2-oxo-1,2-dihydro-1,5-naphthyridine-3-carbonitrile], the IC50 in assay [1] is 0.52 µM; in assay [2], 0.49 µM; in assay [3], over 240 µM.
Take `Cn1c(=O)c(C#N)c(N2CCN(Cc3cccc4cn[nH]c34)CC2)c2nc(Br)ccc21` [Example 333, 6-bromo-4-{4-[(1H-indazol-7-yl)methyl]piperazin-1-yl}-1-methyl-2-oxo-1,2-dihydro-1,5-naphthyridine-3-carbonitrile]: the values for the IC50 in assay [1], in assay [2] and in assay [3] were 0.54 µM, 5 µM and 230 µM, respectively.
On to `Cc1ccc2c(n1)c(N1CCN(Cc3ccccc3O)CC1)c(C#N)c(=O)n2C` [Example 337, 4-{4-[(2-hydroxyphenyl)methyl]piperazin-1-yl}-1,6-dimethyl-2-oxo-1,2-dihydro-1,5-naphthyridine-3-carbonitrile], for which the IC50 was 0.55 µM in assay [1], 0.065 µM in assay [2] and over 81 µM in assay [3].
With `Cn1c(=O)c(C#N)c(N2CCN(Cc3ccccc3F)CC2)c2nc(Cl)ccc21` [Example 339, 6-chloro-4-{4-[(2-fluorophenyl)methyl]piperazin-1-yl}-1-methyl-2-oxo-1,2-dihydro-1,5-naphthyridine-3-carbonitrile], the IC50 in assay [1] is 0.65 µM; in assay [2], 0.57 µM; in assay [3] it was over 240 µM.
For the molecule `COc1ccc(CN2CCN(c3c(C#N)c(=O)n(C)c4ccc(Cl)nc34)CC2)cc1` [Example 341, 6-chloro-4-{4-[(4-methoxyphenyl)methyl]piperazin-1-yl}-1-methyl-2-oxo-1,2-dihydro-1,5-naphthyridine-3-carbonitrile], the IC50 in assay [1] is 0.73 µM; in assay [2], 0.32 µM; in assay [3], over 240 µM.
As for `Cn1c(=O)c([N+](=O)[O-])c(N2CCN(C3(c4ccc(F)cc4)CC3)CC2)c2nc(C#N)ccc21` [Example 342, 8-{4-[1-(4-fluorophenyl)cyclopropyl]piperazin-1-yl}-5-methyl-7-nitro-6-oxo-5,6-dihydro-1,5-naphthyridine-2-carbonitrile], the IC50 is 0.79 µM in assay [1], 28 µM in assay [2] and over 240 µM in assay [3].
Turning to `Cn1c(=O)c(C#N)c(N2CCN(Cc3ccccc3)CC2)c2nc(Cl)ccc21` [Example 343, 4-(4-benzylpiperazin-1-yl)-6-chloro-1-methyl-2-oxo-1,2-dihydro-1,5-naphthyridine-3-carbonitrile], the IC50 was 0.81 µM in assay [1], 0.068 µM in assay [2] and over 81 µM in assay [3].
For the molecule `Cn1c(=O)c(C#N)c(N2CCN(Cc3ccccc3F)CC2)c2nc(Br)ccc21` [Example 344, 6-bromo-4-{4-[(2-fluorophenyl)methyl]piperazin-1-yl}-1-methyl-2-oxo-1,2-dihydro-1,5-naphthyridine-3-carbonitrile], the IC50 in assay [1] is 0.82 µM; in assay [2], 0.4 µM; in assay [3], over 240 µM.
Consider `Cn1c(=O)c(C#N)c(N2CCN(Cc3cc(O)cc(Cl)c3)CC2)c2nc(Cl)ccc21` [Example 345, 6-chloro-4-{4-[(3-chloro-5-hydroxyphenyl)methyl]piperazin-1-yl}-1-methyl-2-oxo-1,2-dihydro-1,5-naphthyridine-3-carbonitrile], for which the IC50 in assay [1] is 0.99 µM; in assay [2], 4.6 µM; in assay [3], over 240 µM.
Turning to `Cc1ccccc1CN1CCN(c2c(C#N)c(=O)n(C)c3ccc(Cl)nc23)CC1` [Example 346, 6-chloro-1-methyl-4-{4-[(2-methylphenyl)methyl]piperazin-1-yl}-2-oxo-1,2-dihydro-1,5-naphthyridine-3-carbonitrile], the IC50 is 1.1 µM in assay [1], 5.3 µM in assay [2] and over 240 µM in assay [3].
As to `Cn1c(=O)c(C#N)c(N2CCN(Cc3ccc(F)c(O)c3)CC2)c2nc(Cl)ccc21` [Example 348, 6-chloro-4-{4-[(4-fluoro-3-hydroxyphenyl)methyl]piperazin-1-yl}-1-methyl-2-oxo-1,2-dihydro-1,5-naphthyridine-3-carbonitrile], the figures for the IC50 in assay [1], in assay [2] and in assay [3] were 1.3 µM, 0.22 µM and 140 µM, respectively.
As for `Cn1c(=O)c(C#N)c(N2CCN(Cc3ccc(F)cc3F)CC2)c2nc(Cl)ccc21` [Example 350, 6-chloro-4-{4-[(2,4-difluorophenyl)methyl]piperazin-1-yl}-1-methyl-2-oxo-1,2-dihydro-1,5-naphthyridine-3-carbonitrile], the IC50 in assay [1] was 1.5 µM; in assay [2], 1.2 µM; in assay [3], over 81 µM.
Turning to `Cn1c(=O)c(C#N)c(N2CCN(Cc3cccc(O)c3)CC2)c2nc(Cl)ccc21` [Example 351, 6-chloro-4-{4-[(3-hydroxyphenyl)methyl]piperazin-1-yl}-1-methyl-2-oxo-1,2-dihydro-1,5-naphthyridine-3-carbonitrile], the IC50 in assay [1] was determined as 1.5 µM; in assay [2], 0.36 µM; in assay [3], 190 µM.
As to `COc1cccc(CN2CCN(c3c(C#N)c(=O)n(C)c4ccc(C)nc34)CC2)c1O` [Example 352, 4-{4-[(2-hydroxy-3-methoxyphenyl)methyl]piperazin-1-yl}-1,6-dimethyl-2-oxo-1,2-dihydro-1,5-naphthyridine-3-carbonitrile], the IC50 was 1.6 µM in assay [1], 0.7 µM in assay [2] and over 81 µM in assay [3].
Consider `COc1ccc(CN2CCN(c3c(C#N)c(=O)n(C)c4ccc(Cl)nc34)CC2)cc1O` [Example 353, 6-chloro-4-{4-[(3-hydroxy-4-methoxyphenyl)methyl]piperazin-1-yl}-1-methyl-2-oxo-1,2-dihydro-1,5-naphthyridine-3-carbonitrile], for which the IC50 in assay [1] is 1.9 µM; in assay [2] it was 0.065 µM; in assay [3], over 240 µM.
As to `Cn1c(=O)c(C#N)c(N2CCN(Cc3ccc(O)c(Cl)c3)CC2)c2nc(Cl)ccc21` [Example 354, 6-chloro-4-{4-[(3-chloro-4-hydroxyphenyl)methyl]piperazin-1-yl}-1-methyl-2-oxo-1,2-dihydro-1,5-naphthyridine-3-carbonitrile], the IC50 in assay [1] was 2.5 µM; in assay [2], 0.11 µM; in assay [3] it was over 240 µM.
For `Cn1c(=O)c(C#N)c(N2CCN(Cc3ccc(O)c(C(F)(F)F)c3)CC2)c2nc(Cl)ccc21` [Example 355, 6-chloro-4-(4-{[4-hydroxy-3-(trifluoromethyl)phenyl]methyl}piperazin-1-yl)-1-methyl-2-oxo-1,2-dihydro-1,5-naphthyridine-3-carbonitrile] the same measures were 2.8 µM, 7.1 µM and over 240 µM.
`Cc1cc(CN2CCN(c3c(C#N)c(=O)n(C)c4ccc(Cl)nc34)CC2)ccc1O` [Example 356, 6-chloro-4-{4-[(4-hydroxy-3-methylphenyl)methyl]piperazin-1-yl}-1-methyl-2-oxo-1,2-dihydro-1,5-naphthyridine-3-carbonitrile]: the IC50 was 3 µM in assay [1], 0.3 µM in assay [2] and over 240 µM in assay [3].
For `Cn1c(=O)c(C#N)c(N2CCN(Cc3cccc4nc[nH]c34)CC2)c2nc(Cl)ccc21` [Example 359, 4-{4-[(1H-1,3-benzodiazol-7-yl)methyl]piperazin-1-yl}-6-chloro-1-methyl-2-oxo-1,2-dihydro-1,5-naphthyridine-3-carbonitrile] the same measures were 8 µM, 19 µM and over 240 µM.
Consider `Cn1c(=O)c(C#N)c(N2CCN(Cc3cccc4nc[nH]c34)CC2)c2nc(Br)ccc21` [Example 360], for which the IC50 in assay [1] was 9.6 µM; in assay [2], 48 µM; in assay [3], over 240 µM.
`Cn1c(=O)c(C#N)c(N2CCN(Cc3cc(Cl)cc(Cl)c3O)CC2)c2nc(Br)ccc21` [Example 366, 6-bromo-4-{4-[(3,5-dichloro-2-hydroxyphenyl)methyl]piperazin-1-yl}-1-methyl-2-oxo-1,2-dihydro-1,5-naphthyridine-3-carbonitrile]: the results for the IC50 in assay [1], in assay [2] and in assay [3] were over 100 µM, 1.3 µM and 160 µM, respectively.
Taken in the same sequence, the figures for `Cn1c(=O)c(C#N)c(N2CCN(Cc3cc(Cl)ccc3O)CC2)c2nc(Br)ccc21` [Example 367, 6-bromo-4-{4-[(5-chloro-2-hydroxyphenyl)methyl]piperazin-1-yl}-1-methyl-2-oxo-1,2-dihydro-1,5-naphthyridine-3-carbonitrile] were over 100 µM, 0.22 µM and over 240 µM.
